Measurements: ChEMBL document CHEMBL5226282, “TLR2 Agonistic Small Molecules: Detailed Structure-Activity Relationship, Applications, and Future Prospects” (J Med Chem, 2021)

What was measured:
Toll-like receptor 2 = Toll-like receptor 2 (Homo sapiens, UniProt O60603); assay: Agonist activity at human TLR2 transfected in HEK293 cells; assay type: cell-based
[1] = biological target: Toll-like receptor 2 (Mus musculus) (UniProt Q9QUN7); assay: Agonist activity at mouse TLR2 transfected in HEK293 cells relative to control; assay type: cell-based; design: concentration or dose not given beside the values
Toll-like receptor 2 (Mus musculus), sequence (Q9QUN7 whole entry): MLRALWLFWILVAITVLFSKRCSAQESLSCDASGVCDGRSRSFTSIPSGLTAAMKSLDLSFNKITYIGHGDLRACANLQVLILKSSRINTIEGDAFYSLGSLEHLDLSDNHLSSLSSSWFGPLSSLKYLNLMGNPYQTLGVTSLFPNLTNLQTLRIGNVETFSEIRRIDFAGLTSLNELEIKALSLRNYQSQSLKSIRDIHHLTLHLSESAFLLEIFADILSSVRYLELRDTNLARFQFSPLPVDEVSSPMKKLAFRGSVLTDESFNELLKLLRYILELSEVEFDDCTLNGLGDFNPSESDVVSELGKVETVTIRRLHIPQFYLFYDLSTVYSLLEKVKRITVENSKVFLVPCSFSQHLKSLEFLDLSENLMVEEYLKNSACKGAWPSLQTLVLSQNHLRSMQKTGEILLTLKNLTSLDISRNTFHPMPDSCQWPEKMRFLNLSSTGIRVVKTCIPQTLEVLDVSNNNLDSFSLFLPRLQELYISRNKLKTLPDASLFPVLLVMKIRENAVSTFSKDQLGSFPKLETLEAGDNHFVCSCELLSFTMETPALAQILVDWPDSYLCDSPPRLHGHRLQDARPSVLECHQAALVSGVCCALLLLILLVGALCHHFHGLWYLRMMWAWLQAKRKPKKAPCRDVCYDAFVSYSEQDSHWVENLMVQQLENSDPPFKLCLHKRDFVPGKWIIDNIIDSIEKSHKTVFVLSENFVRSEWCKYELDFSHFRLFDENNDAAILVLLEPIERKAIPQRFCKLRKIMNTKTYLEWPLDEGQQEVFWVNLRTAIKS

Toll-like receptor 2, sequence (O60603 whole entry): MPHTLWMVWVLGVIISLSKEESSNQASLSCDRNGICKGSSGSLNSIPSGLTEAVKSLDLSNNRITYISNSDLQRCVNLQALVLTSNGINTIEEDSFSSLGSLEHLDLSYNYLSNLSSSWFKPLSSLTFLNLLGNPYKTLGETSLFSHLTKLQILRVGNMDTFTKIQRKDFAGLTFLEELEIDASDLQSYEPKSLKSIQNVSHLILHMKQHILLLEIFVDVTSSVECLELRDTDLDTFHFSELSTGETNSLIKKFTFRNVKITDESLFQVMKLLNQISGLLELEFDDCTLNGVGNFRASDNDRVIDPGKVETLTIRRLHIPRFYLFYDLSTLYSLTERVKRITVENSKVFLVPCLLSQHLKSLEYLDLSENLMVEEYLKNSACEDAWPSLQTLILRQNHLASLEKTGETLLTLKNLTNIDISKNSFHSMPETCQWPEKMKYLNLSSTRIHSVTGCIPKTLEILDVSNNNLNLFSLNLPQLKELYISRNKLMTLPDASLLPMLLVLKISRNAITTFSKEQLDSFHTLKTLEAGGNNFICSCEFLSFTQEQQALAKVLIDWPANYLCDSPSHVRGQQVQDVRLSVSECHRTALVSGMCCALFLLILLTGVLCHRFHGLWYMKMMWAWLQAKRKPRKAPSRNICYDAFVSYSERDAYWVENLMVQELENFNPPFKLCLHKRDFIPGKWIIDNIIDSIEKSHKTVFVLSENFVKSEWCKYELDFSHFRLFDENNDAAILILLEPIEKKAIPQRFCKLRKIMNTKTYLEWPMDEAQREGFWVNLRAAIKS

EC50 (Toll-like receptor 2)	SMILES	also measured
8170 nM	CCCCCCCCCCCC(=O)OC[C@H](CSC[C@@H](N)C(=O)NCCc1ccc(OCCC(C)C)cc1)OC(=O)CCCCCCCCCCC	–
–	CCCCCC(=O)OCC(CSC[C@@H](NC(=O)Cc1ccccc1)C(=O)N[C@@H](CO)C(=O)N[C@@H](CCCCN)C(=O)N[C@@H](CCCCN)C(=O)N[C@@H](CCCCN)C(=O)N[C@@H](CCCCN)C(=O)O)OC(=O)CCCCC (stereo partly drawn)	Activity [1]: 0%
900 nM	CCCCCCCCCCCC(=O)OC[C@H](CSC[C@@H](N)C(=O)NCCOCCOCCOCCC(=O)O)OC(=O)CCCCCCCCCCC	–
–	CCCCCCCCCCCCCCCC(=O)OCC(CSC[C@@H](N)C(=O)N[C@@H](CO)C(=O)N[C@@H](CC(N)=O)C(=O)N[C@@H](CC(C)C)C(=O)N[C@H](C(=O)N[C@H](C(=O)N[C@@H](C)C(=O)N[C@@H](CO)C(=O)N[C@@H](CCC(=O)O)C(=O)N[C@H](C(=O)N[C@@H](CC(C)C)C(=O)O)[C@@H](C)O)[C@@H](C)CC)[C@@H](C)CC)OC(=O)CCCCCCCCCCCCCCC (stereo partly drawn)	EC50 (Toll-like receptor 2; hek293): 270 nM
6500 nM	CCCCCCCCCCCC(=O)OC[C@H](CSC[C@@H](N)C(=O)N[C@@H](CC)COCC(=O)O)OC(=O)CCCCCCCCCCC	–
–	CCCCCCCCCCCCCCCC(=O)N[C@H](CSCC(COC(=O)CCCCC)OC(=O)CCCCC)C(=O)N[C@@H](CO)C(=O)N[C@@H](CCCCN)C(=O)N[C@@H](CCCCN)C(=O)N[C@@H](CCCCN)C(=O)N[C@@H](CCCCN)C(=O)O (stereo partly drawn)	Activity [1]: 0%
–	CCCCCCCC(=O)OCC(CSC[C@@H](NC(=O)Cc1ccccc1)C(=O)N[C@@H](CO)C(=O)N[C@@H](CCCCN)C(=O)N[C@@H](CCCCN)C(=O)N[C@@H](CCCCN)C(=O)N[C@@H](CCCCN)C(=O)O)OC(=O)CCCCCCC (stereo partly drawn)	Activity [1]: 11%
–	CCCCCCCCCCCCCC(=O)N[C@H](CSCC(COC(=O)CC)OC(=O)CC)C(=O)N[C@@H](CO)C(=O)N[C@@H](CCCCN)C(=O)N[C@@H](CCCCN)C(=O)N[C@@H](CCCCN)C(=O)N[C@@H](CCCCN)C(=O)O (stereo partly drawn)	Activity ([1]; filed as agonist): 51%
–	CCCCCCCCCC(=O)N[C@H](CSCC(COC(=O)CCCCC)OC(=O)CCCCC)C(=O)N[C@@H](CO)C(=O)N[C@@H](CCCCN)C(=O)N[C@@H](CCCCN)C(=O)N[C@@H](CCCCN)C(=O)N[C@@H](CCCCN)C(=O)O (stereo partly drawn)	Activity [1]: < 10%
–	CCCCCCCCCCCCCC(=O)N[C@H](CSCC(COC(=O)CCCCCCC)OC(=O)CCCCCCC)C(=O)N[C@@H](CO)C(=O)N[C@@H](CCCCN)C(=O)N[C@@H](CCCCN)C(=O)N[C@@H](CCCCN)C(=O)N[C@@H](CCCCN)C(=O)O (stereo partly drawn)	Activity ([1]; filed as agonist): 51%
38 nM	CCCCCCCCCCCC(=O)OC[C@H](CSC[C@@H](N)C(=O)NCCOCCOCCOCCOCCP(=O)(O)O)OC(=O)CCCCCCCCCCC	–
410 nM	CCCCCCCCCCCC(=O)OC[C@H](CSC[C@@H](N)C(=O)NCCc1ccc(OCCCP(=O)(O)O)cc1)OC(=O)CCCCCCCCCCC	–
–	CCCCCCCC(=O)OCC(CSC[C@@H](NC(=O)CCCCC)C(=O)N[C@@H](CO)C(=O)N[C@@H](CCCCN)C(=O)N[C@@H](CCCCN)C(=O)N[C@@H](CCCCN)C(=O)N[C@@H](CCCCN)C(=O)O)OC(=O)CCCCCCC (stereo partly drawn)	Activity [1]: 11%
68 nM	CCCCCCCCCCCC(=O)OC[C@H](CSC[C@@H](N)C(=O)NC(Cc1ccccc1)c1ccccc1)OC(=O)CCCCCCCCCCC (stereo partly drawn)	–
30700 nM	CCCCCCCCCCCC(=O)OC[C@H](CSC[C@@H](N)C(=O)NCCCC(C)(C)CO)OC(=O)CCCCCCCCCCC	–
257 nM	CCCCCCCCCCCC(=O)OC[C@H](CSC[C@@H](N)C(=O)NC(C)CCN(CC)CC)OC(=O)CCCCCCCCCCC (stereo partly drawn)	–
–	CCCCCCCCCCCCCCCC(=O)OCC(CSC[C@@H](NC(=O)Cc1ccccc1)C(=O)N[C@@H](CO)C(=O)N[C@@H](CCCCN)C(=O)N[C@@H](CCCCN)C(=O)N[C@@H](CCCCN)C(=O)N[C@@H](CCCCN)C(=O)O)OC(=O)CCCCCCCCCCCCCCC (stereo partly drawn)	Activity ([1]; filed as agonist): > 100%

SMILES	EC50 (Toll-like receptor 2)	also measured
CCCCCCCCCCCC(=O)OC[C@H](CSC[C@@H](N)C(=O)NCCc1cccc(O)c1)OC(=O)CCCCCCCCCCC	> 21000 nM	–
